In ChEMBL document CHEMBL6182851, “Discovery of dual CDK4/6 and BRD4 inhibitor as apoptosis and autophagy inducers against NSCLC in vitro and in vivo” (Eur J Med Chem, 2025):
The source made the active and inactive calls. The calls are words filed in the database; no cut-off is given here.

Assays:
[1] = Toxicity in mouse assessed as animal mortality at 100 to 400 mg/kg, ip measured for 21 days; format: organism-based; details: in vivo, 504 h, dose 100-400 mg/kg, time 21 day
NCI-H460 [2] = experiment: Antitumor activity against human NCI-H460 cells xenografted in female BALB/c nude mouse assessed as tumor growth inhibition at 50 mg/kg, ip administered for 21 consecutive days relative to control; format: functional; details: NCI-H460, 504 h, time 21 day, read-out: TGI
NCI-H460 [3] = experiment: Induction of apoptosis in human NCI-H460 cells assessed as early apoptotic cells at 8 uM incubated for 48 hrs by Annexin V-PE/7-AAD staining based flow cytometric analysis (reference value: 3.58 %); format: functional
NCI-H460 [4] = experiment: Induction of apoptosis in human NCI-H460 cells assessed as necrotic cells at 8 uM incubated for 48 hrs by Annexin V-PE/7-AAD staining based flow cytometric analysis (reference value: 0.79 %); format: functional
NCI-H460 [5] = experiment: Induction of autophagy in human NCI-H460 cells assessed as suspension of dead cells incubated for 12 hrs by microscopic analysis; format: functional, cell-based
NCI-H460 [6] = experiment: Induction of autophagy in human NCI-H460 cells assessed as increase in autophagosomes incubated for 48 hrs by MDC staining and LC3B immunofluorescence analysis; format: functional, cell-based; details: dose 2-8 µM
NCI-H460 [7] = experiment: Induction of cell cycle arrest in human NCI-H460 cells assessed as accumulation of cells at G2 phase at 4 uM incubated for 48 hrs by PI staining based flow cytometric analysis (reference value: 11.0 %); format: functional
NCI-H460 [8] = experiment: Induction of autophagy in human NCI-H460 cells assessed as reduction in intracellular mTOR protein expression; format: functional, cell-based
NCI-H460 [9] = experiment: Cytotoxicity against human NCI-H460 cells measured up to 8 days; format: functional, cell-based; details: dose 2-8 µM, time <= 8.0 day
NCI-H460 [10] = experiment: Induction of apoptosis in human NCI-H460 cells assessed as early apoptotic cells at 4 uM incubated for 48 hrs by Annexin V-PE/7-AAD staining based flow cytometric analysis (reference value: 3.58 %); format: functional
[11] = Apparent volume of distribution in male Sprague-Dawley rat at 5 mg/kg, iv measured up to 24 hrs by LC-MS/MS analysis; format: ADME, organism-based; details: in vivo, read-out: Vz
NCI-H460 [12] = experiment: Induction of cell cycle arrest in human NCI-H460 cells assessed as accumulation of cells at G1 phase at 2 uM incubated for 48 hrs by PI staining based flow cytometric analysis (reference value: 56.7 %); format: functional
NCI-H460 [13] = experiment: Antiproliferative activity against human NCI-H460 cells assessed as reduction in EdU positive cells incubated for 24 hrs by EdU incorporation assay; format: functional, cell-based; details: dose 2-8 µM
NCI-H460 [14] = experiment: Antitumor activity against human NCI-H460 cells xenografted in female BALB/c nude mouse assessed as reduction in P-RB expression at 50 mg/kg, ip administered for 21 consecutive days by immunohistochemical analysis; format: functional, organism-based; details: time 21.0 day
NCI-H460 [15] = experiment: Induction of cell cycle arrest in human NCI-H460 cells assessed as accumulation of cells at G1 phase at 4 uM incubated for 48 hrs by PI staining based flow cytometric analysis (reference value: 56.7 %); format: functional
NCI-H460 [16] = experiment: Induction of cell cycle arrest in human NCI-H460 cells assessed as accumulation of cells at G2 phase at 2 uM incubated for 48 hrs by PI staining based flow cytometric analysis (reference value: 11.0 %); format: functional
[17] = AUC (0 to t) in male Sprague-Dawley rat at 5 mg/kg, iv measured up to 24 hrs by LC-MS/MS analysis; format: ADME, organism-based; details: in vivo
NCI-H460 [18] = experiment: Induction of apoptosis in human NCI-H460 cells assessed as late apoptotic cells at 2 uM incubated for 48 hrs by Annexin V-PE/7-AAD staining based flow cytometric analysis (reference value: 3.76 %); format: functional
NCI-H460 [19] = experiment: Induction of autophagy in human NCI-H460 cells assessed as reduction in intracellular AKT protein expression; format: functional, cell-based
NCI-H460 [20] = experiment: Induction of apoptosis in human NCI-H460 cells assessed as necrotic cells at 2 uM incubated for 48 hrs by Annexin V-PE/7-AAD staining based flow cytometric analysis (reference value: 0.79 %); format: functional
[21] = Clearance in male Sprague-Dawley rat at 5 mg/kg, iv measured up to 24 hrs by LC-MS/MS analysis; format: ADME, organism-based; details: in vivo
[22] = Toxicity in mouse assessed as histological change in lung at 400 mg/kg, ip measured for 21 days by H and E staining based analysis; format: organism-based; details: in vivo, 504 h, time 21 day
[23] = Toxicity in mouse assessed as histological change in kidney at 400 mg/kg, ip measured for 21 days by H and E staining based analysis; format: organism-based; details: in vivo, 504 h, time 21 day
NCI-H460 [24] = experiment: Induction of cell cycle arrest in human NCI-H460 cells assessed as accumulation of cells at G2 phase at 8 uM incubated for 48 hrs by PI staining based flow cytometric analysis (reference value: 11.0 %); format: functional
NCI-H460 [25] = experiment: Induction of autophagy in human NCI-H460 cells assessed as increase in yellow fluorescence incubated for 24 hrs by immunofluorescence analysis; format: functional, cell-based; details: dose 2-8 µM
[26] = Toxicity in mouse assessed as histological change in heart at 400 mg/kg, ip measured for 21 days by H and E staining based analysis; format: organism-based; details: in vivo, 504 h, time 21 day
[27] = Toxicity in mouse assessed as histological change in liver at 400 mg/kg, ip measured for 21 days by H and E staining based analysis; format: organism-based; details: in vivo, 504 h, time 21 day
NCI-H460 [28] = experiment: Induction of autophagy in human NCI-H460 cells assessed as production of autophagic lysosomes at 4 uM incubated for 24 hrs by transmission electron microscopic analysis; format: functional, cell-based
MCF-10A = experiment: Cytotoxicity against human MCF-10A cells assessed as cell viability at 5 to 10 uM incubated for 48 hrs by MTT assay; format: toxicity, cell-based; details: dose 5-10 µM
NCI-H1299 = experiment: cells; details: Homo sapiens, NCI-H1299, 48 h
Description: Antitumor activity against human NCI-H1299 cells assessed as inhibition of cell viability incubated for 48 hrs by MTT assay

NCI-H460 [29] = experiment: Induction of cell cycle arrest in human NCI-H460 cells assessed as accumulation of cells at S phase at 2 uM incubated for 48 hrs by PI staining based flow cytometric analysis (reference value: 33.3 %); format: functional
[30] = target: Cyclin-dependent kinase 4 (Homo sapiens, UniProt P11802); experiment: Binding affinity to CDK4 in human NCI-H460 cells assessed as increase in thermal stabilization at 38 to 62 degreeC at 1 uM pretreated for 6 hrs followed by heat exposure for 3 mins and subsequently incubated at room temperature for 3 mins by CETSA; format: cell-based; details: time 366.0 min
Cyclin-dependent kinase 4, sequence (P11802 whole entry): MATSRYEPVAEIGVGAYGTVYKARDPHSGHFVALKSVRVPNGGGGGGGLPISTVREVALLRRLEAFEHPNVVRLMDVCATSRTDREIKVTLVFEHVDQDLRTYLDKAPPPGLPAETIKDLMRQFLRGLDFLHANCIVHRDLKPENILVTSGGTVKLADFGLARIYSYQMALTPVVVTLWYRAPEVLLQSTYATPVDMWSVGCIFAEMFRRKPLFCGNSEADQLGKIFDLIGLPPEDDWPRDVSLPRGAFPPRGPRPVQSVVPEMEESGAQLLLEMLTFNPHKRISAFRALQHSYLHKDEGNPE

NCI-H460 [31] = experiment: Antitumor activity against human NCI-H460 cells xenografted in female BALB/c nude mouse at 25 mg/kg, ip administered for 21 consecutive days; format: functional, organism-based; details: time 21.0 day
NCI-H460 [32] = experiment: Induction of autophagy in human NCI-H460 cells assessed as reduction in intracellular PI3K protein expression; format: functional, cell-based
NCI-H460 [33] = experiment: Induction of apoptosis in human NCI-H460 cells assessed as early apoptotic cells at 2 uM incubated for 48 hrs by Annexin V-PE/7-AAD staining based flow cytometric analysis (reference value: 3.58 %); format: functional
NCI-H460 [34] = experiment: Antitumor activity against human NCI-H460 cells xenografted in female BALB/c nude mouse assessed as suppression of tumor volume at 50 mg/kg, ip administered for 21 consecutive days; format: functional, organism-based; details: time 21.0 day

## COc1cc(-c2nc3ccc(F)cc3c(=O)[nH]2)cc(OC)c1OCC(=O)N1CCN(c2ccc(Nc3ncc4cc(C(=O)N(C)C)n(C5CCCC5)c4n3)nc2)CC1
[1]
  Activity: Non-toxic
NCI-H460 [2]
  inhibition in vivo at 50 mg/kg: 85.3%
NCI-H460 [3]
  Activity: 16.9%
NCI-H460 [4]
  Activity: 1.17%
NCI-H460 [5]
  Activity: Active; Minor Suspension Was Observed
NCI-H460 [6]
  Activity: Dose-dependent-effect
NCI-H460 [7]
  Activity: 7.15%
NCI-H460 [8]
  Activity: Dose-dependent-effect
NCI-H460 [9]
  Activity: Time-dependent-effect
NCI-H460 [10]
  Activity: 8.81%
[11]
  Vd: 14.1 L/kg
NCI-H460 [12]
  Activity: 60.6%
NCI-H460 [13]
  Activity: Dose-dependent-effect
NCI-H460 [14]
  Activity: Active
NCI-H460 [15]
  Activity: 71.1%
NCI-H460 [16]
  Activity: 11.4%
[17]
  AUC(0-t) at 24 h: 3780 ng·h/mL
NCI-H460 [18]
  Activity: 4.55%
NCI-H460 [19]
  Activity: Dose-dependent-effect
NCI-H460 [20]
  Activity: 1.6%
[21]
  clearance: 22.3 mL/min/kg
[22]
  Activity: Non-toxic
[23]
  Activity: Non-toxic
NCI-H460 [24]
  Activity: 3.41%
NCI-H460 [25]
  Activity: Dose-dependent-effect
[26]
  Activity: Non-toxic
[27]
  Activity: Non-toxic
NCI-H460 [28]
  Activity: Active
MCF-10A
  Activity: Non-toxic
NCI-H1299
  IC50: 4.01 µM
NCI-H460 [29]
  Activity: 27%
[30]
  Activity: Active
NCI-H460 [31]
  Activity: Active
NCI-H460 [32]
  Activity: Dose-dependent-effect
NCI-H460 [33]
  Activity: 9.06%
NCI-H460 [34]
  Activity: Active
